# Experiments:
# lipoamide = compound: NC(=O)CCCCC1CCSS1 [lipoamide]; test: thermal stability z-score vs DMSO; higher = more thermally stabilized by treatment; conditions: HeLa, lipoamide concentration 100 µM
# Experimental: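 Cellular thermal proteome profiling in HeLa cells. Cells were treated with 100 µM lipoamide for 1 h, with or without 1 mM arsenate for a further 1 h, then heated to ten temperatures (37-66.3 °C), and soluble protein was quantified by TMT mass spectrometry relative to 0.1% DMSO controls. The thermal stability score (sum of log2 fold changes minus the abundance score) was transformed to a z-score; mean of n = 3 experiments.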
# potassium arsenate = compound: O=[As]([O-])(O)O.[K+] [potassium arsenate]; test: as above; conditions: HeLa; arsenate concentration 1 mM
# Experimental: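 Cellular thermal proteome profiling in HeLa cells treated with 1 mM arsenate for 1 h (DMSO pretreatment), heated to ten temperatures (37-66.3 °C). Soluble protein was quantified by TMT mass spectrometry relative to DMSO controls; the thermal stability score was transformed to a z-score; mean of n = 3 experiments.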
# [1] = arsenate co-treatment: 1 mM arsenate 1 h
# 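Also: each temperature applied for 3 min, abundance score taken as mean log2 fold change at the two lowest temperatures, z-score obtained by mean subtraction and division by SD.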
# Sequence of UniProt Q5T2R2 (Q5T2R2 whole entry): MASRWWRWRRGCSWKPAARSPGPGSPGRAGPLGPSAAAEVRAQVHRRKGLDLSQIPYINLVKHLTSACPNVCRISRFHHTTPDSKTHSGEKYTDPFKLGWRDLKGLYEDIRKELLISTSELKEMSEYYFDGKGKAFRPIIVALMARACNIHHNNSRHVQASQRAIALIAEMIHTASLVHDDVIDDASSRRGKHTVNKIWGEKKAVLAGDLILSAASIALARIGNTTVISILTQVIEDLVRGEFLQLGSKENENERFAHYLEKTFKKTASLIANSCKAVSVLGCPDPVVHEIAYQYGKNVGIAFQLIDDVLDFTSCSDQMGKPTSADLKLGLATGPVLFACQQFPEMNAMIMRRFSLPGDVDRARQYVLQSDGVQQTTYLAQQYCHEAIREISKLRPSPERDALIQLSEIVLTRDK
# Sequence of UniProt Q96N66 (Q96N66 whole entry): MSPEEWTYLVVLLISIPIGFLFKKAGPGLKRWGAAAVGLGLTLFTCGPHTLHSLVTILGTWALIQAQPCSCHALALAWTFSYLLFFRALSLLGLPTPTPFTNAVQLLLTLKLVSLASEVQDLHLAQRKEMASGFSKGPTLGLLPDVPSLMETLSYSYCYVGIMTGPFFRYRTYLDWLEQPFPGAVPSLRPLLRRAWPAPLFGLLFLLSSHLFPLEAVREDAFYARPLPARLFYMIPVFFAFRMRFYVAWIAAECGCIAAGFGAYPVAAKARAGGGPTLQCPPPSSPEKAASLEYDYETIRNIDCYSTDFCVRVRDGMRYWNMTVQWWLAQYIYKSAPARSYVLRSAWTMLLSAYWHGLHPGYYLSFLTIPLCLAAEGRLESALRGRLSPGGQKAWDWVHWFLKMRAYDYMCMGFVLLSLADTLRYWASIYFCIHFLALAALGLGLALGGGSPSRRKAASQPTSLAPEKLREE
# Sequence of UniProt Q9BSH5 (Q9BSH5 whole entry): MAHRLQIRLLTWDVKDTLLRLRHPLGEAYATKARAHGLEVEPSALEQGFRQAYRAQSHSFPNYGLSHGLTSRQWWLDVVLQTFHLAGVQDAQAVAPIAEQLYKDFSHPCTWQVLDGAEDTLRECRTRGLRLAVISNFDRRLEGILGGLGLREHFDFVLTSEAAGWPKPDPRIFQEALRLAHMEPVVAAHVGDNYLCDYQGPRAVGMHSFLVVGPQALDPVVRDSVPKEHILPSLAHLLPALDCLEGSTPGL
# Sequence of UniProt O15287 (O15287 whole entry): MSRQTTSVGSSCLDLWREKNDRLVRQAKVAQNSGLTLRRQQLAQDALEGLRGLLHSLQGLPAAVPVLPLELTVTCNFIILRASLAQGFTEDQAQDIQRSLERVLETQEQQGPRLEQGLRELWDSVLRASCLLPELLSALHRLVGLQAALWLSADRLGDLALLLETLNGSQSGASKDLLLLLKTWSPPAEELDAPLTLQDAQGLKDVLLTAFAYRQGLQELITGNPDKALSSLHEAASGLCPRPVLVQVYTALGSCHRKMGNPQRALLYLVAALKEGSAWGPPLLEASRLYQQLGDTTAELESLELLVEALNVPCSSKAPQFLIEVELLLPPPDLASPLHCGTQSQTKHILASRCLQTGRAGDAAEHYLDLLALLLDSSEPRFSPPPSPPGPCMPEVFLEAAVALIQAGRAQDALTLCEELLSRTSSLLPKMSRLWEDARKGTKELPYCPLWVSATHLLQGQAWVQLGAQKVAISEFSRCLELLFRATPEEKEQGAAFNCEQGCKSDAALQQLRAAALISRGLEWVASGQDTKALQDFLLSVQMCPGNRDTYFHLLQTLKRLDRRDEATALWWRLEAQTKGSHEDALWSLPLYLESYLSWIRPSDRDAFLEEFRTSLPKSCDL
# Sequence of UniProt P54760 (P54760 whole entry): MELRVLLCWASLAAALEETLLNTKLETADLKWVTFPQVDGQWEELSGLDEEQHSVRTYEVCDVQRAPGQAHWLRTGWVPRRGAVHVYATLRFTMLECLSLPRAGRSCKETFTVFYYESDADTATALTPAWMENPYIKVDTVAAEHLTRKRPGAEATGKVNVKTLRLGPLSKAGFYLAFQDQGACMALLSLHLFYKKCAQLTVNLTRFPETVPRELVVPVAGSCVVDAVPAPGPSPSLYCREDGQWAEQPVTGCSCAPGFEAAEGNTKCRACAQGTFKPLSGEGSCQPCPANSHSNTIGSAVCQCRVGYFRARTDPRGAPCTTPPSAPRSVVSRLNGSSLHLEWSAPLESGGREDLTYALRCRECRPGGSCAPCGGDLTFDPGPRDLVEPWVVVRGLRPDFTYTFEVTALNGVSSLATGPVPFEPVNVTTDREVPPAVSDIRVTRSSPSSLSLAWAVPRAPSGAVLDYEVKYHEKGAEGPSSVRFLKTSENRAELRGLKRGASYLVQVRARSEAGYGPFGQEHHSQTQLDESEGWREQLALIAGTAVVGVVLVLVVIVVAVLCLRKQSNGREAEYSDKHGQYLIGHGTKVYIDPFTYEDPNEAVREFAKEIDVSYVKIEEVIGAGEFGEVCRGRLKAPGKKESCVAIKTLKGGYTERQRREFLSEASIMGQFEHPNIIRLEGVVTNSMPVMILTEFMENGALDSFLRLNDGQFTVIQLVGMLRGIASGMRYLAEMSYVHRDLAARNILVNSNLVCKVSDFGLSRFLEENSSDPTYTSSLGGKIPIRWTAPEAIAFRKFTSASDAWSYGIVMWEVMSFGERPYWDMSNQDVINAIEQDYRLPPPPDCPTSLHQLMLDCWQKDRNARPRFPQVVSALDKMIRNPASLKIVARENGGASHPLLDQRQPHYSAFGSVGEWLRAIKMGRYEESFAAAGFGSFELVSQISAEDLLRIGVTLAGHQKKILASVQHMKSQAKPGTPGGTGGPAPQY
# Sequence of UniProt Q8NHP6 (Q8NHP6 whole entry): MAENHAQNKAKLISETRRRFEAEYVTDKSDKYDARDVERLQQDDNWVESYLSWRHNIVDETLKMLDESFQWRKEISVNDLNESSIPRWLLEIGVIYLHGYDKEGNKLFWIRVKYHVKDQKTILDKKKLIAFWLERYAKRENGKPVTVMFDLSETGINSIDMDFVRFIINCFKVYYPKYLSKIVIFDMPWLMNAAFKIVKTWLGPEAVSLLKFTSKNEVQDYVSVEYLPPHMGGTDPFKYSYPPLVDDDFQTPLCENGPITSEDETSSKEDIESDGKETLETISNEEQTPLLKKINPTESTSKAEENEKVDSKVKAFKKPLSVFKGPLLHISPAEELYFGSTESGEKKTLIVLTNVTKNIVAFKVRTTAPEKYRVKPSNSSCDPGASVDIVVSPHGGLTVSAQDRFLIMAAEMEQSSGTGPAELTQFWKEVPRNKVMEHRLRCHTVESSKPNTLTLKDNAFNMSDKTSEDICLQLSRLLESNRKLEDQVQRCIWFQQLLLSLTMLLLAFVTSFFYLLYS
# Sequence of UniProt Q9H3H5 (Q9H3H5 whole entry): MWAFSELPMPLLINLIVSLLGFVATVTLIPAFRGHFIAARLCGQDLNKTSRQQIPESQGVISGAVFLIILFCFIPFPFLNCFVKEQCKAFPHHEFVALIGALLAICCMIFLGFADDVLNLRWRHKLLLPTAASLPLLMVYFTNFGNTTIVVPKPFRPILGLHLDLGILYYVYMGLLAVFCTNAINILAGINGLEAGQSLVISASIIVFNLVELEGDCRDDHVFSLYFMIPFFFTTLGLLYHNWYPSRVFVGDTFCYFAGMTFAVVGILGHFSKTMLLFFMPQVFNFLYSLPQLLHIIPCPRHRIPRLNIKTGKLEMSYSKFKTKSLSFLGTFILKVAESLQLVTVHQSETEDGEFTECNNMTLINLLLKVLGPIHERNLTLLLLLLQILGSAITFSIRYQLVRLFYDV
# Sequence of UniProt Q99613 (Q99613 whole entry): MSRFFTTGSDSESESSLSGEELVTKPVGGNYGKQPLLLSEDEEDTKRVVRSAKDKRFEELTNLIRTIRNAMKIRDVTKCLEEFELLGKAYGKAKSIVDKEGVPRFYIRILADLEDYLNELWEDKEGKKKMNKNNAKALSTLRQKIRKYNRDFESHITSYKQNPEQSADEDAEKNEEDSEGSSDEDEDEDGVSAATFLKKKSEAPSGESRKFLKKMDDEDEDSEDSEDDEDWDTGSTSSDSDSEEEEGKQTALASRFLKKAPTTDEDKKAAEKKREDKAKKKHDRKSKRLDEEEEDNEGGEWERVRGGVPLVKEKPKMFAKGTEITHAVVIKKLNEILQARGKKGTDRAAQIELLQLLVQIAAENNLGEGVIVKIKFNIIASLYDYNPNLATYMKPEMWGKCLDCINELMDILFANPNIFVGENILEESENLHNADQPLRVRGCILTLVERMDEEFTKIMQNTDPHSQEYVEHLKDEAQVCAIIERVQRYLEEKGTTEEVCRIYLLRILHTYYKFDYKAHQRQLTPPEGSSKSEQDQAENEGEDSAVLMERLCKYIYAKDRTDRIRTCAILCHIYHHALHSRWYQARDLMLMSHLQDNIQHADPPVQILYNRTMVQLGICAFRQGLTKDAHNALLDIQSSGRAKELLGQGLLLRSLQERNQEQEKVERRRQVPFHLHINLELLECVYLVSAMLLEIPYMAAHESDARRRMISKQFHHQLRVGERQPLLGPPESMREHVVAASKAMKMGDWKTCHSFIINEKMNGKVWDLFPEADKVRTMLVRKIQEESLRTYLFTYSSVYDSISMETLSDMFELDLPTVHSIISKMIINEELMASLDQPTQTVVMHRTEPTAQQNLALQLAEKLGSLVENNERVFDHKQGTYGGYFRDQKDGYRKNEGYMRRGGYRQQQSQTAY
# Sequence of UniProt Q9NR56 (Q9NR56 whole entry): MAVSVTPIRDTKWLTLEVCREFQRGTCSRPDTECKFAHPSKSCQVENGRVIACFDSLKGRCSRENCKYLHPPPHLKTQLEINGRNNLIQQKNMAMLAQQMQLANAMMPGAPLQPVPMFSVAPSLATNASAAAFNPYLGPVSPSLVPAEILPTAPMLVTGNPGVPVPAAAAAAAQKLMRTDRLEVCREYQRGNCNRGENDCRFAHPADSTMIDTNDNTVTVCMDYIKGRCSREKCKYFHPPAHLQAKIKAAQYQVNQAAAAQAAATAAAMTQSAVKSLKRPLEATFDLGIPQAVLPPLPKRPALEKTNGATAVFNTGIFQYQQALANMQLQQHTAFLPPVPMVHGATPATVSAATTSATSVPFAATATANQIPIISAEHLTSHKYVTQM
Target,thermal stability z-score (lipoamide; [1]),thermal stability z-score (lipoamide; arsenate co-treatment: none),thermal stability z-score (potassium arsenate)
TRIP13 (UniProt Q15645),-0.215,-0.735,-0.184
DPYD (UniProt Q12882),0.0898,0.178,0.0708
AP1M1 (UniProt Q9BXS5),0.126,-0.43,0.791
PDSS1 (UniProt Q5T2R2),0.272,0.466,0.423
SEC22B (UniProt O75396),-0.614,-0.0571,-0.0449
MBOAT7 (UniProt Q96N66),-0.956,-0.883,-0.732
DPAGT1 (UniProt Q9H3H5),-0.304,0.836,-0.109
TSEN34 (UniProt Q9BSV6),-1.1,0.117,-0.292
UBE2B (UniProt P63146),0.48,-0.354,-0.132
DHX29 (UniProt Q7Z478),0.104,0.27,0.267
FBXO21 (UniProt O94952),-0.226,-1.07,0.0266
PNPO (UniProt Q9NVS9),0.101,0.677,-0.734
EIF3C (UniProt Q99613),-0.304,0.183,0.498
MOSPD2 (UniProt Q8NHP6),-0.58,-0.383,-0.254
GCSH (UniProt P23434),0.134,-0.126,-1.45
METTL1 (UniProt Q9UBP6),0.351,0.439,0.207
DBNL (UniProt Q9UJU6),0.473,0.208,0.99
JUNB (UniProt P17275),0.208,0.791,-1.55
NAT10 (UniProt Q9H0A0),0.444,-0.105,-0.812
SLC25A20 (UniProt O43772),2.62,0.0858,-0.0934
MBNL1 (UniProt Q9NR56),-0.368,-0.277,-0.983
CNOT4 (UniProt O95628),-0.171,-0.00856,0.494
RPL22 (UniProt P35268),-0.122,-0.292,-0.98
SCNM1 (UniProt Q9BWG6),-0.00102,0.278,0.418
CCDC43 (UniProt Q96MW1),0.776,0.412,0.864
EIF3B (UniProt P55884),-0.333,0.0629,0.472
FARP1 (UniProt Q9Y4F1),-0.118,-1.38,-2.23
TP53BP1 (UniProt Q12888),1.4,0.891,-0.0759

Target,thermal stability z-score (lipoamide; [1]),thermal stability z-score (lipoamide; arsenate co-treatment: none),thermal stability z-score (potassium arsenate)
PPP1R18 (UniProt Q6NYC8),-0.336,0.0646,0.444
GMPR2 (UniProt Q9P2T1),0.37,0.368,0.121
NCS1 (UniProt P62166),-0.202,-0.195,-0.124
SPDL1 (UniProt Q96EA4),0.746,0.706,1.2
COMMD2 (UniProt Q86X83),0.00791,-0.169,-0.00764
SKA3 (UniProt Q8IX90),-0.0726,0.132,-0.18
KIF13A (UniProt Q9H1H9),0.286,-0.0098,0.0799
ZNF326 (UniProt Q5BKZ1),-0.0719,0.0989,0.0996
CNOT3 (UniProt O75175),-0.0612,0.0363,1.26
SEC31A (UniProt O94979),0.00351,-0.104,0.497
SP100 (UniProt P23497),3.43,0.96,4.5
POLB (UniProt P06746),-0.0159,-0.17,-0.111
GNG12 (UniProt Q9UBI6),1.21,1.3,0.329
PPIP5K2 (UniProt O43314),0.258,0.00428,-0.606
ESF1 (UniProt Q9H501),0.105,0.129,0.24
PNPT1 (UniProt Q8TCS8),-0.261,-0.271,0.418
AP2M1 (UniProt Q96CW1),0.48,0.0269,0.0231
HAX1 (UniProt O00165),-1,-0.895,-0.11
HDHD3 (UniProt Q9BSH5),-0.136,-0.867,-2.27
MAPK9 (UniProt P45984),0.00773,-0.817,-0.98
NF1 (UniProt P21359),-0.487,-0.235,-0.72
CLPTM1L (UniProt Q96KA5),-2.13,-1.51,0.279
FANCG (UniProt O15287),-0.348,-0.437,-0.507
UPP1 (UniProt Q16831),-0.122,0.244,-0.16
TIFA (UniProt Q96CG3),-0.71,-0.0546,-0.879
EPHB4 (UniProt P54760),-0.297,-0.194,0.295
TTI2 (UniProt Q6NXR4),-1.12,-0.63,0.0606

# — the supplement of paper PMC12463676, “Small-molecule dissolution of stress granules by redox modulation benefits ALS models” (Nature Chemical Biology, 2025)
